Results as given in PMC7611940, “A Conformation Selective Mode of Inhibiting SRC Improves Drug Efficacy and Tolerability” (Cancer Research, 2021).

Biological target: SRC (Homo sapiens, UniProt P12931)
Assay: inhibition of SRC autophosphorylation (pY419) in cells, Western blot
Assay type: cell-based

Chain of SRC (P12931 2-536): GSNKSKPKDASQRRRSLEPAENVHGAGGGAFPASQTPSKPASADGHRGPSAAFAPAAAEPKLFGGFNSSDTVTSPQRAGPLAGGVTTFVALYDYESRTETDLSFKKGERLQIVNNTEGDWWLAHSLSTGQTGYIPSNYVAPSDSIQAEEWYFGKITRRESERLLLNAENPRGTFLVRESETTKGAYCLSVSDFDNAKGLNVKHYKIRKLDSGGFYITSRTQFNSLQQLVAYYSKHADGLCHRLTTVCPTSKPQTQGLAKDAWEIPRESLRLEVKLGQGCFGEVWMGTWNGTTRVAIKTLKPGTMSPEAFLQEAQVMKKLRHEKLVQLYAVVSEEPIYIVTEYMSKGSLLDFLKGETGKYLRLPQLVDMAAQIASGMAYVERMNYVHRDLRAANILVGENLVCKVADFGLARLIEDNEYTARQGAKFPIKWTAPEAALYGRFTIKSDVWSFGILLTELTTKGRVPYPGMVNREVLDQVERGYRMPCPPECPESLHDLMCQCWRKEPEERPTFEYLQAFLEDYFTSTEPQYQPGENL

SMILES: COc1cc(Nc2c(C#N)cnc3cc(OCCCN4CCN(C)CC4)c(OC)cc23)c(Cl)cc1Cl [bosutinib]
- inhibition of SRC autophosphorylation (pY419) in cells, Western blot: Bosutinib and saracatinib displayed weaker inhibition of SRC autophosphorylation in all the cell lines tested
